Reference: the supplement of paper PMC10307832

Legend:
Experiment in all cases: relative viability (nuclei count vs DMSO), 5 days (fraction); higher = more cells survive
XMD14-99 + Tozasertib = compound: CN1CCN(CC1)C2=CC(=C(C=C2)NC3=NC(=C(S3)C(=O)C4=C(C=CC=C4Cl)Cl)N)OC [XMD14-99] + Cc1cc(Nc2cc(N3CCN(C)CC3)nc(Sc3ccc(NC(=O)C4CC4)cc3)n2)n[nH]1 [Tozasertib] (partner 0.1 µM)
Summary of the method: (§1)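 A single step with final 0.05% Triton X-100, 1% formaldehyde and 1 ug/ml Hoechst fixed the cells and stained nuclei 5 days after treatment. Lung cancer cell lines in 1536-well plates had been treated by pin tool the day after seeding with one drug alone or a fixed anchor-drug dose plus five library-drug doses (not always all listed) in √10 steps, and nuclei were counted on 4× images. Relative viability is the ratio of nuclei in treated wells to nuclei in vehicle wells, taken as the median of duplicate plates.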

AZD1208 + Pemetrexed = compound: N[C@@H]1CCCN(c2c(/C=C3\SC(=O)NC3=O)cccc2-c2ccccc2)C1 [AZD1208] + Nc1nc2[nH]cc(CCc3ccc(C(=O)N[C@@H](CCC(=O)O)C(=O)O)cc3)c2c(=O)[nH]1 [Pemetrexed] (partner 0.2 µM)
Summary of the method: as §1

AZD1208 + Crizotinib = compound: N[C@@H]1CCCN(c2c(/C=C3\SC(=O)NC3=O)cccc2-c2ccccc2)C1 [AZD1208] + C[C@@H](Oc1cc(-c2cnn(C3CCNCC3)c2)cnc1N)c1c(Cl)ccc(F)c1Cl [Crizotinib] (partner 1 µM)
Summary of the method: as §1

AZD1208 + Navitoclax = compound: N[C@@H]1CCCN(c2c(/C=C3\SC(=O)NC3=O)cccc2-c2ccccc2)C1 [AZD1208] + CC1(C)CCC(c2ccc(Cl)cc2)=C(CN2CCN(c3ccc(C(=O)NS(=O)(=O)c4ccc(N[C@H](CCN5CCOCC5)CSc5ccccc5)c(S(=O)(=O)C(F)(F)F)c4)cc3)CC2)C1 [Navitoclax] (partner 0.5 µM)
Summary of the method: as §1

Row | Cell Line | relative viability (XMD14-99 + Tozasertib; first compound 0.08 µM) | relative viability (XMD14-99 + Tozasertib; first compound 0.8 µM) | relative viability (XMD14-99 + Tozasertib; first compound 2.53 µM) | relative viability (XMD14-99 + Tozasertib; first compound 8 µM) | relative viability (AZD1208 + Pemetrexed; first compound 0.08 µM) | relative viability (AZD1208 + Pemetrexed; first compound 0.253 µM) | relative viability (AZD1208 + Pemetrexed; first compound 0.8 µM) | relative viability (AZD1208 + Pemetrexed; first compound 2.53 µM) | relative viability (AZD1208 + Pemetrexed; first compound 8 µM) | relative viability (AZD1208 + Crizotinib; first compound 0.08 µM) | relative viability (AZD1208 + Crizotinib; first compound 0.253 µM) | relative viability (AZD1208 + Crizotinib; first compound 0.8 µM) | relative viability (AZD1208 + Crizotinib; first compound 2.53 µM) | relative viability (AZD1208 + Crizotinib; first compound 8 µM) | relative viability (AZD1208 + Navitoclax; first compound 0.08 µM) | relative viability (AZD1208 + Navitoclax; first compound 0.253 µM) | relative viability (AZD1208 + Navitoclax; first compound 0.8 µM) | relative viability (AZD1208 + Navitoclax; first compound 2.53 µM) | relative viability (AZD1208 + Navitoclax; first compound 8 µM)
1 | NCI-H1437 | 0.426 | 0.336 | 0.321 | 0.219 | 0.302 | 0.307 | 0.327 | 0.355 | 0.322 | 0.979 | 0.961 | 1.03 | 0.998 | 1.04 | 1.13 | 1.11 | 1.02 | 1.16 | 1.07
2 | COR-L23 | 0.18 | 0.211 | 0.182 | 0.151 | 0.188 | 0.193 | 0.195 | 0.206 | 0.194 | 0.741 | 0.661 | 0.699 | 0.725 | 0.647 | 0.948 | 1.07 | 0.931 | 1.05 | 0.816
3 | ABC-1 | 0.185 | 0.177 | 0.235 | 0.217 |  |  |  |  |  | 1.03 | 1.23 | 1.11 | 1.09 | 1.11 |  |  |  |  | 
4 | SW 900 | 0.665 | 0.453 | 0.451 | 0.37 | 0.475 | 0.443 | 0.454 | 0.472 | 0.469 |  |  |  |  |  |  |  |  |  | 
5 | PC-14 | 0.584 | 0.572 | 0.599 | 0.368 | 0.125 | 0.132 | 0.14 | 0.153 | 0.165 | 0.925 | 1.02 | 0.991 | 0.923 | 0.906 | 1.02 | 0.988 | 1.01 | 1.02 | 1
6 | NCI-H1648 | 0.362 | 0.292 | 0.316 | 0.253 | 0.626 | 0.629 | 0.814 | 0.891 | 1.07 |  |  |  |  |  |  |  |  |  | 
7 | A549 |  |  |  |  |  |  |  |  |  | 0.819 | 0.847 | 0.54 | 0.661 | 0.541 | 1.24 | 1.16 | 1.12 | 1.18 | 1.1
8 | A-427 | 0.224 | 0.227 | 0.201 | 0.188 | 0.971 | 1.05 | 0.847 | 1.03 | 0.911 | 0.888 | 0.974 | 0.797 | 0.851 | 0.767 | 0.936 | 0.95 | 0.892 | 0.876 | 0.863
9 | NCI-H1792 |  |  |  |  | 0.912 | 1.11 |  | 0.698 | 0.556 | 1.03 | 1.08 | 0.858 | 0.956 | 0.907 | 0.678 | 0.779 | 0.531 | 0.645 | 0.557
10 | LCLC-97TM1 | 0.401 | 0.238 | 0.202 | 0.211 | 0.188 | 0.176 | 0.125 | 0.175 | 0.171 | 0.464 | 0.515 |  | 0.318 | 0.294 | 0.369 | 0.271 |  | 0.446 | 0.21
11 | NCI-H1703 |  |  |  |  |  |  |  |  |  | 0.365 | 0.53 | 0.579 | 0.594 | 0.461 | 0.98 | 1.19 | 0.88 | 0.878 | 0.783
